Here are results for five molecules from patent publication US6403090B1, “Peptides which mimic candida carbohydrate epitopes and their use in a vaccine” (The Research and Development Institute Inc., priority 1994, dated 2002).

Data set [1] has as its system g3p in COS-1 cells. Put plainly: g3p expression in transfected COS-1 cells by IFA. It is filed as cell-based. Particulars: COS-1 cells treated with protease inhibitor. As for the experimental part:
To achieve greater levels of expression, the plasmids were transfected into COS-1 cells, which are capable of replicating the plasmids and generating exceptional amounts of the encoded proteins. […] Several different transfection methods and variations were tested to increase the proportion of cells that would express detectable g3p. […] Therefore, g3p is likely being broken down rapidly by the mammalian cells.
This possibility was further tested by treating the COS-1 cells with a protease inhibitor (ALLN) that can inhibit proteases in the endoplasmic reticulum of living cells. […] The antigen was detected in the Golgi apparatus as well as in the endoplasmic reticulum. Less of the truncated version of g3p (without a membrane anchor) was detectable; whether any of it is secreted from the expressing cells under these conditions remains to be determined.

Data set [2] deals with binding of C. albicans hydrophilic yeast cells to splenic marginal zone macrophages. Put plainly: Ex vivo adherence assay on mouse splenic tissue. Particulars: purified epitope of mAb 10G. An excerpt:
Tissue adherence characteristics of C. albicans and adhesin isolation. By use of an ex vivo adherence assay, the adherence characteristics of hydrophilic and hydrophobic yeast cells to mouse splenic and lymph node tissue was examined (Cutler, J. E., et al., 1990, Characteristics of Candida albicans adherence to mouse tissues. Infec. Immun. 58:1902-1908); Han, Y., et al. 1993. Binding of C. albicans yeast cells to mouse popliteal lymph node tissue is mediated by macrophages. Infect. Immun. 61:3244-3249; and Hazen, K. C., et al. 1991. Differential adherence between hydrophobic and hydrophilic yeast cells of C. albicans. Infect. Immun. 59:907-91212).
C. neoformans strain 602 log and stationary phase cells were removed form the various growth conditions and tested for adherence to splenic tissue in the ex vivo assay. […]
However, 2ME extract will not inhibit yeast adherence if the extract is treated with antiserum from vaccinated animals. […] 100 μl of each was overlaid onto splenic cryosections for 15 min at 4° C., the mixtures were decanted, 100 μl of a suspension of yeast cells (1.5×10^7/0.1 ml DMEM) was added to each tissue section for 15 min at 4° C., and yeast cell binding was quantified as previously described (Riesselman, M. H. et al. 1991. Improvements and important considerations of an ex vivo assay to study interactions of C. albicans with splenic tissue., J. Immunol. Methods 1450:153-160). […]

In data set [3] the target is Monoclonal Antibody B6.1 (930610), ATCC Accession No. HB11925.
The target of data set [4] is irrelevant IgM MAb S10.
The subject of data set [5] is C. albicans 2ME extract. Put plainly: Antibody response of mice immunized with peptide mimotope preparations. The note with it: for Class of the antibody response against 2ME extract: γ-chain or μ-chain specific secondary antibodies. It is filed as in vivo, BALB/c mice. As to the method:
Administration of peptide intraperitoneally (i.p.) BALB/c mice (4 animals) were immunized i.p. with PS76p (1 mg per dose) mixed into sterile PBS (degassed and nitrogen sparged) with and without RS-700MPL+TDM Ribi Adjuvant (Ribi Immunochem, Hamilton, Mont.). The insolubility of PS76p in PBS, as noted above, produced a particulate inoculum which was sonicated briefly (10 sec, ice cold) to minimize particulate size prior to injection. Animals were boosted with 1 mg PS76p at day 21 and serum samples were obtained on day 28. Sera from all four mice agglutinated hydrophilic C. albicans cells and agglutinated 2-ME extract-latex beads. The anti-Candida response appeared somewhat stronger in the animals receiving peptide with adjuvant.
Reactivity of the anti-PS76p sera from the mice was also tested in dot blot assays against 2-ME extract (1 μg/dot). Immune sera were diluted 1:10 in 5% BLOTTO-phage buffer, incubated 12-16 h with preblocked dot blots, washed and incubated with peroxidase-conjugated goat anti-mouse Ig (G,M, and A). […] Additional dot blots were incubated in primary antibodies as above and reacted with either γ-chain specific or μ-chain specific secondary antibodies.
Animals were administered booster immunizations of PS76p every two weeks and serum samples obtained 1 week after each. An ELISA assay was utilized to determine any change in titer for the anti-PS76p antiserum samples. Briefly, 2ME extract-coated wells or wells coated with an irrelevant carbohydrate were blocked in 5% BLOTTO/phage buffer and incubated with dilutions of either pre-immune sera or various anti-PS76p antiserum samples. Subsequent steps with the secondary antibody and substrate solution were as described above for ELISA. All of the anti-PS76p serum samples reacted with 2ME extract and recognized the peptide-carrier protein conjugates, but not the irrelevant carbohydrate or the carrier proteins alone. […] Other BALB/C mice (2 animals) were immunized with PS76p plus Ribi adjuvant (1 mg/dose subcutaneous inoculation (s.c.), and reached higher anti-PS76 antibody titers (e.g. 160 by ELISA) after the second boost. ELISA tests performed with class-specific secondary antibody reagents confirm that the response is primarily IgM. […]

Data set [6] is described as follows: Solubility tests. It is filed as physicochemical. From the text:
Synthetic peptide inhibits binding of MAb B6.1 to its' carbohydrate epitope. […] We obtained a synthetic 13-mer peptide (Bio-Synthesis, Lewisville, Tex.), YRQFVTGFWGPPC, (SEQ ID NO:7) which was designed to include the PS76 nonapeptide sequence (designated as PS76p) plus the 3 amino acid pIII tether (GPP) and an added cysteine (C) to facilitate peptide coupling to a carrier protein, such as keyhole limpet hemocyanin (KLH). Due to the high number of hydrophobic amino acids in the synthesized PS76p, solubility tests were run to determine conditions for dot blot inhibition studies. The PS76p was soluble in trifluoroacetic acid, dimethylsulfoxide, 20% v/v acetic acid, citrate and acetate buffers below pH 5.4, borate buffer above pH 8.5, but not soluble in deionized water, phosphate buffered saline (PBS), 15% v/v dimethylformamide, chloroform, or methanol.

Data set [7] concerns MAb B6.1. Description: Dot blot inhibition of MAb B6.1 by synthetic peptide at pH 8.6. It is filed as binding, mouse. Particulars: up to 200 μM peptide. An excerpt:
Because pH below 5 or above 8.5 is required to solubilize PS76p, the reactivity of MAb B6.1 at low and high pH was investigated. […] Although MAb B6.1 is functional at these pH conditions, the PS76p may or may not retain proper epitope conformation at this pH and may require tethering to a carrier molecule to enable inhibition studies to be done at pH 7.

In data set [8] the test system is MAb S10. Description: ELISA: peptide-carrier conjugates with irrelevant IgM MAb S10. It is filed as binding. The note with it: physiologic pH. As for the experimental part:
(§1) Samples of the final conjugates, PS76p-MBS-KLH (i.e. PS76-KLH) and PS76p-GMBS-OVA (i.e. PS76-OVA) were tested by enzyme linked immunosorbent assay (ELISA) for reactivity with MAb B6.1 at physiologic pH. Microtiter plate wells were coated with the peptide conjugates or the carrier proteins alone, washed (Tris buffered saline with 0.1% Tween-20), and blocked in 5% BLOTTO/phage buffer. Wells were washed and incubated with MAb B6.1, an irrelevant IgM (MAb S10) or block only, washed, and a horseradish peroxidase-conjugated goat anti-mouse Ig (G and M) was added. Wells were washed and an o-phenylenediamine substrate solution was added, incubated 10 min and color development stopped with 10% sulfuric acid, and the plate read at OD=490 nm. […] The PS76-KLH conjugate was utilized in an ELISA-based inhibition assay as follows. Microtiter plate wells were coated with PS76-KLH and blocked as above. MAb B6.1 ([…] in block) was pre-incubated with or without either 50 or 500 μg of acid-hydrolyzed 2ME extract per ml of solution, and then added to the conjugate coated well.
(In an ELISA, binding on a coated surface is turned into a signal by an enzyme label.)

For data set [9], the system named is MAb B6.1. Description: ELISA: peptide-carrier conjugates with MAb B6.1 at physiologic pH. It is filed as binding, mouse. The note with it: OD 490 nm. As to the method: as §1

Where a SMILES comes first, the peptide text is derived from it. [ ]: non-standard residue; d: D form. Nle = CCCC[C@H](N)C(=O)O

With `CCCC[C@@H](C=O)NC(=O)[C@H](CC(C)C)NC(=O)[C@H](CC(C)C)NC(C)=O` [ALLN] (Ac-Leu-Leu-[Nle]-aldehyde), the “Frequency and amount of g3p detectable by IFA” value in data set [1] is reported as “significant increase”.
Regarding `OC[C@H]1O[C@@H](O[C@@H]2[C@H](O[C@@H]3[C@H](O[C@@H]4C(O)O[C@H](CO)[C@@H](O)[C@@H]4O)O[C@H](CO)[C@@H](O)[C@@H]3O)O[C@H](CO)[C@@H](O)[C@@H]2O)[C@@H](O)[C@@H](O)[C@@H]1O` (stereo partly drawn) [tetramannose, β-1,2-linked straight-chained tetramannose], the “Binding of yeast cells to the splenic marginal zone” value in data set [2] is recorded as “blocks binding”.
As to “M13KBst, the parent vector (parent phage) for the PDPL (from UniProt P69168 19-424)”, the figures for the absorbance (OD490) in [3] and in data set [4] were 0.021 OD490 and 0.032 OD490, respectively.
Regarding “YRQFVTGFWGPPC [PS76p, synthetic 13-mer: PS76 nonapeptide plus GPP tether and added cysteine]”, the “ELISA titer against 2ME extract” value in [5] (1 mg i.p. immunizations, boosters every two weeks) is recorded as around 40. Also, the “Agglutination of hydrophilic C. albicans cells and 2-ME extract-latex beads by sera of immunized mice” value in [5] (1 mg per dose i.p. with and without Ribi adjuvant, boost day 21, serum day 28, all four mice) is “agglutinated”. Further, the “ELISA anti-PS76 antibody titer” value in [5] (1 mg/dose s.c. plus Ribi adjuvant, after the second boost) came to 160. In addition, the “Dot blot reactivity of immune sera to 2-ME extract” value in [5] (sera 1:10, 1 μg/dot, all four immunized mice) is “showed reactivity”. For the same molecule, the “Class of the antibody response against 2ME extract” value in [5] is listed as “primarily IgM”. Further, the Solubility entry in data set [6] (deionized water, PBS, 15% v/v dimethylformamide, chloroform, methanol) is “not soluble”; in data set [6] (trifluoroacetic acid, dimethylsulfoxide, 20% v/v acetic acid, citrate and acetate buffers below pH 5.4, borate buffer above pH 8.5) it was “soluble”. The “Inhibition of MAb B6.1 binding to 2-ME extract” value in [7] was “negative”.

B1: PS76-OVA: PS76p conjugated to ovalbumin via GMBS (conjugate)
peptide: YRQFVTGFWGPPC
chain: GSIGAASMEFCFDVFKELKVHHANENIFYCPIAIMSALAMVYLGAKDSTRTQINKVVRFDKLPGFGDSIEAQCGTSVNVHSSLRDILNQITKPNDVYSFSLASRLYAEERYPILPEYLQCVKELYRGGLEPINFQTAADQARELINSWVESQTNGIIRNVLQPSSVDSQTAMVLVNAIVFKGLWEKAFKDEDTQAMPFRVTEQESKPVQMMYQIGLFRVASMASEKMKILELPFASGTMSMLVLLPDEVSGLEQLESIINFEKLTEWTSSNVMEERKIKVYLPRMKMEEKYNLTSVLMAMGITDVFSSSANLSGISSAESLKISQAVHAAHAEINEAGREVVGSAEAGVDAASVSEEFRADHPFLFCIKHIATNAVLFFGRCVSP
Consider B1, for which the “ELISA titer against 2ME extract” value in [5] (conjugate s.c.) is on record as 320. In data set [5], the “Class of the antibody response against 2ME extract” value is on record as “primarily IgM”. The “Reactivity with MAb S10 by ELISA” value in [8] is “not substantially”. The “Reactivity with MAb B6.1 by ELISA” value in data set [9] is reported as “reacted”.
